The values below come from patent US12116344B2, “Crystalline forms of a pharmaceutical compound” (Azafaros B.V., priority 2020, dated 2024).

Holding throughout (format): physicochemical
The nature of data set [1]: Approximate solubility by incremental solvent addition with shaking/sonication. The conditions noted are these: for solubility: thermodynamic from solid, about 25° C., approximate, read-out: Solubility S. The protocol: Approximate solubilities were determined by incremental addition of solvent to about 10 mg the compound and subsequent shaking and/or sonication for a short period of time. If the substance was not dissolved by addition of a total of at least 10 ml solvent, the solubility is indicated as <1 mg/ml. The experiments were conducted at about 25° C.
Compound (I) was purified using a silica gel column to remove borate esters followed by a short equilibration in acetonitrile (about 1-5 min). Solubility of purified compound (I) in acetonitrile was determined to be between 5 mg/mL and 8 mg/mL. These values were determined by adding small aliquots of solvent to −10 mg of solid compound (I) and shaking/sonicating for a short period of time at room temperature (about 25° C.).

Data set [2] is described as follows: Stability of the crystalline form (transition of Form 2 into Form 3). The conditions noted are these: Form 2 transitions into Form 3 above around 30° C. in about 1-5 min, or in solvent for more than 5 min at around 25° C. The protocol:
Alternatively, Form 2 transitioned into Form 3 upon equilibration in solvent (e.g. acetone) for more than 5 min at around 25° C.

A short description of data set [3]: Dynamic vapour sorption (DVS), hygroscopicity. How it is done: Dynamic vapour sorption (DVS) measurements were performed with an SPS11-100n “Sorptions Prüfsystem” from ProUmid (formerly “Projekt Messtechnik”), August-Nagel-Str. 23, 89079 Ulm (Germany). About 5 mg to 20 mg of sample was put into an aluminum sample pan. Humidity change rates of 5% per hour were used. The applied measurement program can be described as follows:
The sample was placed on an aluminium or platinum holder on top of a microbalance and allowed to equilibrate at a relative humidity (RH) of 50% before starting the pre-defined humidity programs: • (1) 2 h at 50% RH • (2) 50→0% RH (5%/h); 5 h at 0% RH • (3) 0→95% RH (5%/h); 5 h at 95% RH • (4) 95→0% RH (5%/h); 5 h at 0% RH • (5) 0→95% RH (5%/h); 5 h at 95% RH • (6) 95→50% RH (5%/h); 2 h at 50% RH

What is called solubility is how much of the substance goes into solution per volume.

≈ marks a conversion by molar mass, not a printed value. Where two headings read alike, the source gives them in different places. Some results are limits rather than exact numbers.

With `OC[C@H]1[C@@H](O)[C@H](O)[C@@H](O)CN1CCCCCOCc1ccc(-c2ccccc2)c(F)c1` [compound (I)], the solubility in data set [1] (organic solvent or mixture, 1-Propanol) is 13 to 15 mg/mL (≈ 30 to 34.6 mM); in data set [1] (organic solvent or mixture, 2-Propanol), 19 to 20 mg/mL (≈ 43.8 to 46.1 mM); in data set [1] (organic solvent or mixture, Acetic acid), more than 120 mg/mL; in data set [1] (organic solvent or mixture, Acetone), 55 to 73 mg/mL (≈ 127 to 168 mM); in data set [1] (organic solvent or mixture, Acetonitrile), 5 to 8 mg/mL (≈ 11.5 to 18.5 mM); in data set [1] (organic solvent or mixture, DCM), more than 160 mg/mL. For the same compound, the solubility in data set [1] (organic solvent or mixture, Ethanol) is 40 to 53 mg/mL (≈ 92.3 to 122 mM); in data set [1] (organic solvent or mixture, Ethyl acetate), 12 to 13 mg/mL (≈ 27.7 to 30 mM); in data set [1] (organic solvent or mixture, MEK) it was 40 to 50 mg/mL (≈ 92.3 to 115 mM); in data set [1] (organic solvent or mixture, Methanol), more than 160 mg/mL; in data set [1] (organic solvent or mixture, THF) it was more than 200 mg/mL; in data set [1] (Water) it was approximately 80 mg/mL (≈ 185 mM).

In the case of `OC[C@H]1[C@@H](O)[C@H](O)[C@@H](O)CN1CCCCCOCc1ccc(-c2ccccc2)c(F)c1` [Form 2], in data set [2], the “Stability of the crystalline form” value is “low stability”. The same compound had a Solubility in water in data set [1] (Form 2 crystalline form, summary Table 3) of approximately 80 mg/mL (≈ 185 mM). In data set [3], the “Hygroscopicity (description)” value is listed as “hygroscopic”.
